Measurements from PMC6597546, “Identification of a potent benzoxaborole drug candidate for treating cryptosporidiosis” (Nature Communications, 2019).
Several values for one entry are separate records, joined by “and”; a condition that tells them apart may be missing. Identical values can stand only once.

Tested on: C. parvum (Bunch Grass Farms Iowa isolate)
Test: Neonatal calf model of cryptosporidiosis
Assay type: in vivo
Parameters: key to Oocyst Shedding, individual calves / Oocyst Shedding: C. parvum abundance per gram of fecal dry matter (qPCR); key to Fecal Consistency Score, individual calves / Fecal Consistency Score: score 1 = normal, 3 = severely abnormal
Conditions: for Fecal Consistency Score / Oocyst Shedding: 10 mg/kg every 12 h with delayed start
Protocol: All calf efficacy studies were performed as previously described. These studies were approved by the University of Vermont Institutional animal Care and Use Committee, and conducted in compliance with the USDA-APHIS “Blue Book”, available at www.aphis.usda.gov/animal-welfare. Holstein bull calves were acquired at birth from Green Mountain Dairy (Sheldon, VT), given synthetic colostrum with 200 g of IgG (Land O’Lakes, Ardent Hills, MO) and bovine coronavirus and Escherichia coli antibodies (First Defense Bolus, Immuncell Corporation, Portland, ME) within 2 h of birth, and transported to UVM. Calves were group-housed initially, and infected at 24–48 h of age during an interruption in bottle feeding by oral administration of ∼5 × 10^7 C. parvum Iowa isolate oocysts (Bunch Grass Farms, Deary, ID) suspended in 10 mL of water. They were then moved to individual raised pens, and observed twice daily at feeding times for clinical signs, which were quantified according to a previously described standardized scoring rubric. Data on fecal consistency, dehydration and overall health were collected, in each case with a score of 1 being normal and 3 being severely abnormal (scoring rubric in Supplementary Table 2). Clinical microbiologic studies for adventitious infectious agents including Salmonella culture, aerobic bacterial culture with E. coli genotyping, rotavirus, and coronavirus testing were performed on all calves at the onset of diarrhea by the Cornell Animal Health Diagnostic Center (Ithaca, NY). Animals with severe diarrhea or other symptoms were supported aggressively, including with administration of oral electrolytes, intravenous fluids and flunixin meglumine (Banamine, Merck) as needed. […] Daily fecal samples were obtained from collections bins located under each pen. Fecal samples used for parasite quantification were dried at 90 °C until stable in weight, and C. parvum abundance per gram of fecal dry matter was measured using qPCR and the primers Cp18s forward and Cp18s reverse.

**Q.** What does the source list for `CC1(C)OB(O)c2cc(NC(=O)c3ccc(-n4cccn4)cc3Cl)ccc21` [AN7973]?
**A.** Fecal Consistency Score (Calf 1, Day 2): 1.67; Oocyst Shedding (Calf 1, Day 2): 4028; Fecal Consistency Score (Calf 1, Day 3): 2; Oocyst Shedding (Calf 1, Day 3): 3180923; Fecal Consistency Score (Calf 1, Day 4): 2.33; Oocyst Shedding (Calf 1, Day 4): 4800342; Fecal Consistency Score (Calf 1, Day 5): 1.5; Oocyst Shedding (Calf 1, Day 5): 120115; Fecal Consistency Score (Calf 1, Day 6): 1; Oocyst Shedding (Calf 1, Day 6): 5946; Fecal Consistency Score (Calf 1, Day 7): 1; Oocyst Shedding (Calf 1, Day 7): 4811; Fecal Consistency Score (Calf 1, Day 8): 1; Oocyst Shedding (Calf 1, Day 8): 154; Fecal Consistency Score (Calf 1, Day 9): 1; Oocyst Shedding (Calf 1, Day 9): 1; Fecal Consistency Score (Calf 1, Day 10): 1; Oocyst Shedding (Calf 1, Day 10): 1; Fecal Consistency Score (Calf 1, Day 11): 1; Oocyst Shedding (Calf 1, Day 11): 164; Fecal Consistency Score (Calf 1, Day 12): 1; Oocyst Shedding (Calf 1, Day 12): 1032; Fecal Consistency Score (Calf 1, Day 13): 1; Oocyst Shedding (Calf 1, Day 13): 1; Fecal Consistency Score (Calf 1, Day 14): 1; Oocyst Shedding (Calf 1, Day 14): 1; Fecal Consistency Score (Calf 2, Day 0): 1; Oocyst Shedding (Calf 2, Day 0): 1; Fecal Consistency Score (Calf 2, Day 1): 3; Oocyst Shedding (Calf 2, Day 1): 15983; Fecal Consistency Score (Calf 2, Day 2): 2; Oocyst Shedding (Calf 2, Day 2): 572309; Fecal Consistency Score (Calf 2, Day 3): 2.67; Oocyst Shedding (Calf 2, Day 3): 9928800; Fecal Consistency Score (Calf 2, Day 4): 3; Oocyst Shedding (Calf 2, Day 4): 10753010; Fecal Consistency Score (Calf 2, Day 5): 2.33; Oocyst Shedding (Calf 2, Day 5): 89411; Fecal Consistency Score (Calf 2, Day 6): 1; Oocyst Shedding (Calf 2, Day 6): 36783; Fecal Consistency Score (Calf 2, Day 7): 1; Oocyst Shedding (Calf 2, Day 7): 6676; Fecal Consistency Score (Calf 2, Day 8): 1; Oocyst Shedding (Calf 2, Day 8): 2648; Fecal Consistency Score (Calf 2, Day 9): 1; Oocyst Shedding (Calf 2, Day 9): 2147; Fecal Consistency Score (Calf 2, Day 10): 1; Oocyst Shedding (Calf 2, Day 10): 401; Fecal Consistency Score (Calf 2, Day 11): 1; Oocyst Shedding (Calf 2, Day 11): 10; Fecal Consistency Score (Calf 2, Day 12): 1; Oocyst Shedding (Calf 2, Day 12): 1; Fecal Consistency Score (Calf 2, Day 13): 1; Oocyst Shedding (Calf 2, Day 13): 1; Fecal Consistency Score (Calf 2, Day 14): 1; Oocyst Shedding (Calf 2, Day 14): 1; Fecal Consistency Score (Calf 3, Day 0): 1; Oocyst Shedding (Calf 3, Day 0): 1; Fecal Consistency Score (Calf 3, Day 1): 3; Oocyst Shedding (Calf 3, Day 1): 4675; Fecal Consistency Score (Calf 3, Day 2): 2.33; Oocyst Shedding (Calf 3, Day 2): 376713; Fecal Consistency Score (Calf 3, Day 3): 2.5; Oocyst Shedding (Calf 3, Day 3): 3074178; Fecal Consistency Score (Calf 3, Day 4): 3; Oocyst Shedding (Calf 3, Day 4): 1097033; Fecal Consistency Score (Calf 3, Day 5): 2.33; Oocyst Shedding (Calf 3, Day 5): 172967; Fecal Consistency Score (Calf 3, Day 6): 1.5; Oocyst Shedding (Calf 3, Day 6): 10727; Fecal Consistency Score (Calf 3, Day 7): 1; Oocyst Shedding (Calf 3, Day 7): 1; Fecal Consistency Score (Calf 3, Day 8): 1; Oocyst Shedding (Calf 3, Day 8): 363; Fecal Consistency Score (Calf 3, Day 9): 1; Oocyst Shedding (Calf 3, Day 9): 1134; Fecal Consistency Score (Calf 3, Day 10): 1; Oocyst Shedding (Calf 3, Day 10): 624; Fecal Consistency Score (Calf 3, Day 11): 1; Oocyst Shedding (Calf 3, Day 11): 1; Fecal Consistency Score (Calf 3, Day 12): 1; Oocyst Shedding (Calf 3, Day 12): 1; Fecal Consistency Score (Calf 3, Day 13): 1; Oocyst Shedding (Calf 3, Day 13): 28; Fecal Consistency Score (Calf 3, Day 14): 1; Oocyst Shedding (Calf 3, Day 14): 1; Oocyst Shedding, individual calves (10 mg/kg every 24 h on days 2–8, Day 0): 100 and 331 and 774; Oocyst Shedding, individual calves (10 mg/kg every 24 h on days 2–8, Day 1): 6698 and 100 (2×); Oocyst Shedding, individual calves (10 mg/kg every 24 h on days 2–8, Day 3): 644594 and 196913 and 724661; Oocyst Shedding, individual calves (10 mg/kg every 24 h on days 2–8, Day 4): 119580 and 31776 and 1355; Oocyst Shedding, individual calves (10 mg/kg every 24 h on days 2–8, Day 5): 573 and 17468 and 8981; Oocyst Shedding, individual calves (10 mg/kg every 24 h on days 2–8, Day 7): 67293 and 6611 and 7598; Oocyst Shedding, individual calves (10 mg/kg every 24 h on days 2–8, Day 9): 54864 and 100 and 1163; Oocyst Shedding, individual calves (10 mg/kg every 24 h on days 2–8, Day 10): 139951 and 100 and 1010; reduction of total burden of fecal C. parvum shedding (AUC) (bovine, in vivo): over 90%; reduction of fecal C. parvum shedding rate (first three days of treatment): nearly five logs; Fecal Consistency Score, individual calves (scale 1 normal to 3 severely abnormal, 5 mg/kg every 12 h on days 2–8, Day 0): 1; Fecal Consistency Score, individual calves (scale 1–3, 5 mg/kg every 12 h on days 2–8, Day 1): 1; Fecal Consistency Score, individual calves (scale 1–3, 5 mg/kg every 12 h on days 2–8, Day 2): 1; Fecal Consistency Score, individual calves (scale 1–3, 5 mg/kg every 12 h on days 2–8, Day 3): 1; Fecal Consistency Score, individual calves (scale 1–3, 5 mg/kg every 12 h on days 2–8, Day 4): 1; Fecal Consistency Score, individual calves (scale 1–3, 5 mg/kg every 12 h on days 2–8, Day 5): 1; Fecal Consistency Score, individual calves (scale 1–3, 5 mg/kg every 12 h on days 2–8, Day 6): 1; Fecal Consistency Score, individual calves (scale 1–3, 5 mg/kg every 12 h on days 2–8, Day 7): 1; Fecal Consistency Score, individual calves (scale 1–3, 5 mg/kg every 12 h on days 2–8, Day 8): 1; Fecal Consistency Score, individual calves (scale 1–3, 5 mg/kg every 12 h on days 2–8, Day 9): 1; Fecal Consistency Score, individual calves (scale 1–3, 5 mg/kg every 12 h on days 2–8, Day 10): 1; Fecal Consistency Score, individual calves (scale 1–3, 10 mg/kg every 24 h on days 2–8, Day 0): 1; Fecal Consistency Score, individual calves (scale 1–3, 10 mg/kg every 24 h on days 2–8, Day 1): 1; Fecal Consistency Score, individual calves (scale 1–3, 10 mg/kg every 24 h on days 2–8, Day 2, 10 mg/kg): 1.33 (2×) and 2.67; Fecal Consistency Score, individual calves (scale 1–3, 10 mg/kg every 24 h on days 2–8, Day 3, 10 mg/kg): 2 (2×) and 2.33; Fecal Consistency Score, individual calves (scale 1–3, 10 mg/kg every 24 h on days 2–8, Day 4, 10 mg/kg): 2.33 and 1.33 (2×); Fecal Consistency Score, individual calves (scale 1–3, 10 mg/kg every 24 h on days 2–8, Day 5): 1; Fecal Consistency Score, individual calves (scale 1–3, 10 mg/kg every 24 h on days 2–8, Day 6): 1; Fecal Consistency Score, individual calves (scale 1–3, 10 mg/kg every 24 h on days 2–8, Day 7): 1; Fecal Consistency Score, individual calves (scale 1–3, 10 mg/kg every 24 h on days 2–8, Day 8): 1; Fecal Consistency Score, individual calves (scale 1–3, 10 mg/kg every 24 h on days 2–8, Day 9): 1; Fecal Consistency Score, individual calves (scale 1–3, 10 mg/kg every 24 h on days 2–8, Day 10): 1; effect on dehydration (several of the treatment regimens): significantly reduced the overall severity of dehydration; tolerability in calves (twice daily assessment of alertness, interaction, appetite): tolerated AN7973 well
